This note sets out measurements from publication PMC12027948, “Development of Peptidomimetic PROTACs as Potential Degraders of 3-Chymotrypsin-like Protease of SARS-CoV-2” (International Journal of Molecular Sciences, 2025).

The target of one data set is SARS-CoV-2 3CL^pro (Severe acute respiratory syndrome coronavirus 2, UniProt P0DTD1). Kind of data set: cell-based. Particulars: HEK293 cells with stable 3CL^pro-flag expression, 72 h treatment, densitometry of Western blot; read-out: Dmax (maximum degradation in percentage). On the technique in general: Immunoblotting shows a protein as a band on a membrane.
A short description of data set [1]: Cytotoxicity assay (Cell Counting Kit-8). Particulars: human. Background: Formazan colour is commonly taken as a measure of viable cells.
The next data set deals with HEK293 cells. Kind of data set: Cytotoxicity assay (Cell Counting Kit-8). Particulars: read-out: CC50 (50% cytotoxicity concentration); HEK293, 72 h, CCK8.
[2] abbreviates: HEK293 cells, CC50 (50% cytotoxicity concentration), HEK293, 72 h, CCK8.

Usually Dmax stands for the largest share of the target that was removed. `CC(C)[C@H](NC(=O)[C@@H](NC(=O)OC(C)(C)C)C1CCCCC1)C(=O)OCCOCCNc1cccc2c1C(=O)N(C1CCC(=O)NC1=O)C2=O` (some centres unmarked) [Compound 15]: the Dmax at SARS-CoV-2 3CL^pro is 89.3%. For the same molecule, in data set [1] (setting [2]), the CC50 at 3 days turned out to be 145 µM. As to `CC(C)C[C@H](NC(=O)OC(C)(C)C)C(=O)N[C@@H](Cc1ccccc1)C(=O)OCCOCCOCCNc1cccc2c1C(=O)N(C1CCC(=O)NC1=O)C2=O` (some centres unmarked) [Compound 16], the greatest degradation seen (Dmax) on SARS-CoV-2 3CL^pro was 75%. Also, the CC50 at 3 days in data set [1] (setting [2]) was roughly 25 µM. Also, the CC50 in the data set on HEK293 cells came out at 25.8 µM. For `CC(C)(C)OC(=O)N[C@H](C(=O)N[C@@H](Cc1ccccc1)C(=O)NCCCCNC(=O)CCC(=O)Nc1cccc2c1CN(C1CCC(=O)NC1=O)C2=O)C1CCCCC1` (some centres unmarked) [Compound 17], the CC50 at 3 days in data set [1] worked out at 219 µM. The same measure, in the same setting: to `CC(C)(C)OC(=O)N[C@H](C(=O)N[C@@H](Cc1ccccc1)C(=O)NCCCCCCNC(=O)CCC(=O)Nc1cccc2c1CN(C1CCC(=O)NC1=O)C2=O)C1CCCCC1` (some centres unmarked) [Compound 18] belongs 92.2 µM; to `CC(C)C[C@H](NC(=O)[C@H](Cc1ccccc1)NC(=O)OC(C)(C)C)C(=O)NCCCCCCNC(=O)CCC(=O)Nc1cccc2c1CN(C1CCC(=O)NC1=O)C2=O` (some centres unmarked) [Compound 19], 241 µM.
